In US10329304B2, “Compounds and methods for inhibition of hedgehog signaling and phosphodiesterase” (Vanderbilt University, priority 2014, dated 2019):
“Also recorded” adds a separate entry of the source. Like-named read-outs stand apart in the source and are kept apart here.

How the values were obtained:
[1] = system: DaoY; experiment: Cell viability assay (CellTiter-Blue, 72 hr); format: cell-based, Human
Description: (§1) Cancer cell lines were seeded in 96 well tissue culture plate at a low density (10,000 cells per well) and treated with varying concentrations of Eggmanone. After 72 hr incubation, CellTiter-Blue Cell Viability Assay (Promega, Madison, Wis.) was then performed according to manufacturer's protocol. Absorbance was then measured in a Modulus Microplate reader (Promega, Madison, Wis.) at 590 nm and compared to cells treated with DMSO.
as §1, with “density” for “density (10,000 cells per well)”, “compounds identified in Table 7.” for “Eggmanone.”

[2] = system: RWGT2; experiment: Cell viability assay (CellTiter-Blue, 72 hr); format: cell-based, Human
Description: as §1
as §1, with “density” for “density (10,000 cells per well)”, “compounds identified in Table 7.” for “Eggmanone.”

[3] = system: HCT116; experiment: Cell viability assay (CellTiter-Blue, 72 hr); format: cell-based, Human
Description: as §1
as §1, with “density” for “density (10,000 cells per well)”, “compounds identified in Table 7.” for “Eggmanone.”

[4] = system: MDA-MB- 231; experiment: Cell viability assay (CellTiter-Blue, 72 hr); format: cell-based, Human
Description: as §1
as §1, with “density” for “density (10,000 cells per well)”, “compounds identified in Table 7.” for “Eggmanone.”

[5] = system: RKO; experiment: Cell viability assay (CellTiter-Blue, 72 hr); format: cell-based, Human; conditions: for EC50: RKO, human cancer cells, read-out: CELL KILLING EC50 (μM) Colon RKO
Description: as §1
as §1, with “density” for “density (10,000 cells per well)”, “compounds identified in Table 7.” for “Eggmanone.”

[6] = system: PC3; experiment: Cell viability assay (CellTiter-Blue, 72 hr); format: cell-based; conditions: for EC50: PC-3, human cancer cells, read-out: CELL KILLING EC50 (μM) Prostate PCx3
Description: as §1

[7] = system: Gli1 mRNA; experiment: Hh % Inh.: SAG-induced Gli1 expression in C3H10T½ cells (qPCR); format: cell-based; conditions: Mus musculus, C3H 10T1/2, SAG-induced (100 nM), 24 hours; for inhibition at 1 µM: 1 pM [sic], read-out: C3H10T1/2 qPCR, Gh1 mRNA % Inh., 1 pM; for inhibition at 10 µM: 10 pM [sic], read-out: C3H10T1/2 qPCR, Gh1 mRNA % Inh., 10 pM; for EC50: read-out: C3H10T1/2 qPCR, Gh1 mRNA EC50
Description: Compounds are dosed from 10 mM DMSO stock solutions, and mRNA is isolated after 24 hours of compound treatment. mRNA is reverse transcribed to produce cDNA which is quantified by quantitative polymerase chain reaction (qPCR) in triplicate and levels are normalized to GAPDH levels. Data is presented as percent inhibition compared to positive control (SAG).

[8] = system: B16F11; experiment: Cell viability assay (CellTiter-Blue, 72 hr); format: cell-based, Mouse
Description: as §1
as §1, with “density” for “density (10,000 cells per well)”, “compounds identified in Table 7.” for “Eggmanone.”

[9] = system: Hedgehog signaling (TM3-Gli-Luc); experiment: TM3-Gli-Luc luciferase reporter assay stimulated with 20 nM SAG; format: cell-based
Summary of the method: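 Luciferase read-out divided by CellTiter-Glo viability, minus DMSO/no-SAG baseline, expressed relative to 20 nM SAG alone. Cells exposed to compound with SAG for 48 h at 37 °C in 2.5% FBS DMEM/F12 on gelatin. EC50 ±SEM from at least two separate-day runs.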

[10] = Daoy, human cancer cells, read-out: CELL KILLING EC50 (μM) Medulloblastoma DaoY
[11] = human cancer cells, read-out: CELL KILLING EC50 (μM) Lung Squam, NSCLC RWGT2
[12] = HCT-116, human cancer cells, read-out: CELL KILLING EC50 (μM) Colon HTC116
[13] = MDA-MB-231, human cancer cells, read-out: CELL KILLING EC50 (μM) Breast MDA-231
[14] = Mus musculus, B16-F10, Table 10, read-out: CELL KILLING EC50 (μM) Melanoma B16F10
[15] = Table 9A, read-out: TM3 G8 Luciferase EC 50
[16] = 20 nM SAG, mean ± standard error of the mean, read-out: TM3-Gli-Luc EC50
[17] = TM3-Gli-Luc reporter line stimulated with 20 nM SAG, mean ± SEM, Table 14, read-out: TM3-Gli-Luc EC50

EC50 [9, 15] [µM] | SMILES | EC50 [1, 10] [µM] | EC50 [2, 11] [µM] | EC50 [3, 12] [µM] | EC50 [4, 13] [µM] | EC50 [5] [µM] | EC50 [6] [µM] | inhibition at 1 µM [7] [%] | inhibition at 10 µM [7] [%] | EC50 [7] [µM] | EC50 [8, 14] [µM] | other results
 | C=C(C)Cn1c(SCC(=O)c2cccs2)nc2sc3c(c2c1=O)CCCC3 [Eggmanone, 3-(2-methylallyl)-2-((2-oxo-2-(thiophen-2-yl)ethyl)thio)-5,6,7,8-tetrahydrobenzo[4,5]thieno[2,3-d]pyrimidine-4(3H)-one] |  |  |  |  |  |  |  |  |  |  | Viability of Daoy medulloblastoma cells [1]: potently and preferentially reduced the viability; also recorded: significantly inhibited; Viability of Daoy medulloblastoma cells ([1]; listed as eggmanone): potently and preferentially reduced the viability; EC50 ([2]; 72 h, read-out: EC50 (50% reduction of viable cell count at 72 hours), RWGT2, Human Lung Carcinoma): 6.87 µM; Effect on HCT116 colon cancer cell line [3]: significantly inhibited; EC50 ([4]; 72 h, read-out: EC50 (50% reduction of viable cell count at 72 hours), MDA-MB- 231, Human Breast Adenocarcinoma): 2.05 µM; Effect on RKO colon cancer cell line [5]: significantly inhibited; Effect on PC3 prostate cancer cell line [6]: is affected; EC50 ([8]; 72 h, read-out: EC50 (50% reduction of viable cell count at 72 hours), B16F11, Mouse Melanoma): 2.05 µM
 | CCCn1c(SCC(=O)c2cccs2)nc2sc3c(c2c1=O)CCCC3 [Formula 9e] |  |  |  |  |  |  |  |  |  |  | EC50 [9, 16]: 1.3 ± 0.18 µM; EC50 [9, 17]: 1.3 ± 0.18 µM
 | C=C(C)Cn1c(SCC(=O)c2ccccc2)nc2sc3c(c2c1=O)CCCC3 [Formula 9g] |  |  |  |  |  |  |  |  |  |  | Hh inhibitory activity / potency in words ([9]; 20 nM SAG): modest potency; EC50 [9, 16]: 5.7 ± 2.1 µM; EC50 [9, 17]: 5.7 ± 2.1 µM
0.476 | O=C(CSc1nc2sc3c(c2c(=O)n1C1CC1)CCCC3)c1cccs1 [JEH-3-039-2] |  |  |  |  |  |  | 49.3 | 89.1 | 0.593 |  | 
3.02 | C=CCn1c(SCC(=O)c2cccs2)nc2sc3c(c2c1=O)CCCC3 [JEH-3-039-3] | 34 | 5.07 | 54.5 | 1.74 | 306 | 50.1 | 64.9 | 66.5 |  | 3.69 | 
19 | C=C(C)Cn1c(SCC(=O)c2ccncc2)nc2sc3c(c2c1=O)CCCC3 [JEH-3-048-1] | 0.0574 | 40.2 | 87.9 | 6.82 | 52.9 | 81.2 |  | 28.7 |  | 14.2 | EC50 ([1]; 72 h, read-out: EC50 (50% reduction of viable cell count at 72 hours), DaoY, Human Cerebellar Medulloblastoma): 0.057 µM
39.8 | C=C(C)Cn1c(SCC(=O)c2ccccn2)nc2sc3c(c2c1=O)CCCC3 [JEH-3-063] | 15.3 | 23.7 | 3.82 | 4.46 | 7.18 | 100 |  | 35.4 |  | 2.29 | EC50 ([3]; HCT-116, 72 h, read-out: EC50 (50% reduction of viable cell count at 72 hours), HCT116, Human Colorectal Carcinoma): 3.82 µM
32.5 | C=C(C)Cn1c(SCC(=O)c2nccs2)nc2sc3c(c2c1=O)CCCC3 [JEH-3-069-1] | 26.9 | 27.6 | 22.9 | 14 | 38.3 | 69.7 |  | 42.8 |  | 16.1 | 

SMILES | EC50 [9, 15] [µM] | EC50 [1, 10] [µM] | EC50 [2, 11] [µM] | EC50 [3, 12] [µM] | EC50 [4, 13] [µM] | EC50 [5] [µM] | EC50 [6] [µM] | inhibition at 1 µM [7] [%] | inhibition at 10 µM [7] [%] | EC50 [7] [µM] | EC50 [8, 14] [µM] | other results
C=C(C)Cn1c(SCC(=O)c2cccs2)nc2sc3c(c2c1=O)CCCC3 [EGM, Eggmanone] | 1.35 | 31.5 | 6.87 | 11.4 | 2.05 | 54.3 | 77.2 | 53.3 | 92.7 | 1.41 | 2.22 | 
C=C(C)Cn1c(SCC(=O)c2ccccc2)nc2sc3c(c2c1=O)CCCC3 [JEH-3-045-1] | 8.49 |  |  |  |  |  |  | 58.1 | 95.4 | 0.809 |  | 
